In patent EP0808303B1, “5-(4-SUBST.-PIPERIDINYL-1)-3-ARYL-PENTANOIC ACID DERIVATIVES AS TACHYKININ RECEPTOR ANTAGONIST” (AstraZeneca AB, priority 1995, dated 1996):

Assays:
NK1 receptor = NK1 receptor (Oryctolagus cuniculus, UniProt G1SEI7); test: Rabbit Pulmonary Artery: NK1 in vitro functional assay (Test C); type: cell-based; conditions: -log molar KB against agonist ASMSP
Experimental: Rabbit Pulmonary Artery: NK1 in vitro functional assay (Test C)
Male New Zealand white rabbits are killed by lethal injection (Nembutal, 60 mg/kg into a cannulated ear vein). Heparin, 0.0025 ml/kg of a 1000 U/ml solution, is injected into the ear vein prior to nembutal in order to decrease blood coagulation. The left and right branches of the pulmonary artery are isolated from the rest of the lung tissue and cut in half to provide four ring segments from each animal. […] Changes in tension are measured on a Grass polygraph via Grass FT-03 force transducers. […]
Potencies of the compounds are determined by calculating the apparent dissociation constants (KB) for each concentration tested using the standard equation: KB = [antagonist]/(dose ratio - 1) [formula] where dose ratio = antilog[(agonist-log molar EC50 without compound) - (agonist-log molar EC50 with compound)]. The KB values are converted to the negative logarithms and expressed as -log molar KB (i.e. pKB). […] The EC50 values are converted to negative logarithms and expressed as -log molar EC50. Maximum relaxation responses to ASMSP are determined by expressing the maximum response to the agonist as a percentage of the relaxation caused by papaverine.

NK2 = target: T1, NK2 (Cavia porcellus, UniProt Q64077); test: Guinea Pig Trachea Assay: NK2 in vitro functional assay (Test D); type: cell-based; conditions: -log molar KB against agonist BANK
T1 construct: The trachea are removed, trimmed of excess tissue (including removal of epithelium) and cut in spiral fashion; from tissue; host or cells: guinea pig trachea strips
T1 sequence (Q64077 1-402): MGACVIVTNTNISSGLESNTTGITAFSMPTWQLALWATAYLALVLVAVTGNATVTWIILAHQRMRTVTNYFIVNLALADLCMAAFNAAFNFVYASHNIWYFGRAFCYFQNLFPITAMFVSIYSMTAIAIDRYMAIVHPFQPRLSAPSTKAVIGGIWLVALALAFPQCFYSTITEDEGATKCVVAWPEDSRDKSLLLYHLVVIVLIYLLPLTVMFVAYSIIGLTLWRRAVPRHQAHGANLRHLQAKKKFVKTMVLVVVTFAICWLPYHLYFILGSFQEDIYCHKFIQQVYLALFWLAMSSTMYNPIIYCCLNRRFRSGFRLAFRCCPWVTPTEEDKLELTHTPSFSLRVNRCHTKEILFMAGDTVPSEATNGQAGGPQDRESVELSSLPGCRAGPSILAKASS
Experimental: Guinea Pig Trachea Assay: NK2 in vitro functional assay (Test D)
Male guinea pigs are killed by a sharp blow to the back of the head followed by exsanguination. The trachea are removed, trimmed of excess tissue (including removal of epithelium) and cut in spiral fashion. Each longitudinally cut tracheal segment is suspended as a strip in a water-jacketed (37.5°C) tissue bath containing a physiological salt solution of the following composition (mM): NaCl, 119; KCl 4.6; CaCl2, 1.8; MgCl2, 0.5; NaH2PO4, 1; NaHCO3, 25; glucose, 11; and indomethacin, 0.005 (to inhibit cyclooxygenase); gassed continuously with 95% O2-%5 CO2. […] Contractile responses are measured on a Grass polygraph via Grass FT-03 force transducers. […]
Potencies of the compounds are evaluated by calculating apparent dissociation constants (KB) for each concentration tested using the standard equation: KB = [antagonist]/(dose ratio-1) [formula] where dose ratio = antilog[(agonist -log molar EC50 without compound) - (agonist-log molar EC50 with compound)]. The KB values are converted to the negative logarithms and expressed as -log molar KB (i.e. pKB). […] The EC50 values are converted to the negative logarithms and expressed as -log molar EC50. Maximum contractile responses to BANK are determined by expressing the maximum response to BANK as a percentage of the initial contraction caused by capasacin.

human NK2 receptor = target: T2, human NK2 receptor (Homo sapiens, UniProt P21452)
T2 sequence (P21452 1-398): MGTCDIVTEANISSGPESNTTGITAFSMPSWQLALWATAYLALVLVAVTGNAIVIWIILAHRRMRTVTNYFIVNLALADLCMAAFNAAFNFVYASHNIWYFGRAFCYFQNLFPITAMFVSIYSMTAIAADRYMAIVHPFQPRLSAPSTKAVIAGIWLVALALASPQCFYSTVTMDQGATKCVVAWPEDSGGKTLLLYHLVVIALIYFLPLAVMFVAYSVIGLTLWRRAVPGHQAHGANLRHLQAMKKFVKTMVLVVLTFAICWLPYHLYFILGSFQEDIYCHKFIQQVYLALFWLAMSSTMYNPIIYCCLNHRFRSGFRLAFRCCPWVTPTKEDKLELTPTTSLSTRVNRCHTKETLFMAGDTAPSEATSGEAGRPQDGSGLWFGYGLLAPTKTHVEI

human NK1 receptor = target: T3, human NK1 receptor (Homo sapiens, UniProt P25103); test: SP Receptor Binding Assay (Test A); conditions: binding of SP at human NK1 receptor expressed in MEL cells
T3 construct: expressed in transfected cells; host or cells: Mouse Erythroleukemia (MEL) cells
Text: SP Receptor Binding Assay (Test A)
The human NK1 receptor was isolated and characterized as described in: B. Hopkins, et al. "Isolation and characterization of the human lung NK1 receptor cDNA" Biochem. Biophys. Res. Comm., 1991, 180, 1110-1117; and the NK1 receptor was expressed in Mouse Erythroleukemia (MEL) cells using a procedure similar to that described in Test B below.

NK1 receptor, sequence (G1SEI7 1-407): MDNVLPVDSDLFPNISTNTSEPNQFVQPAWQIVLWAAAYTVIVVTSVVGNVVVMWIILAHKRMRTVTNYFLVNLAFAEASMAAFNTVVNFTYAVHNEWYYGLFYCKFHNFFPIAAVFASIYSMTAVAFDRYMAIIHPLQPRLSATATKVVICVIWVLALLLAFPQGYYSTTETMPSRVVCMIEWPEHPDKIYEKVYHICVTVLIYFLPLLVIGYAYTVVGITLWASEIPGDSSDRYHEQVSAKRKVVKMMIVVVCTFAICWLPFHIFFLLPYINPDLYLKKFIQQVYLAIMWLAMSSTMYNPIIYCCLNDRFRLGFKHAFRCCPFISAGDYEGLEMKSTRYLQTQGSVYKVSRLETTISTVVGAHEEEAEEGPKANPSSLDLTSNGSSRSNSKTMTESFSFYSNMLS
T3 sequence (P25103 whole entry): as the sequence (G1SEI7 1-407) above, with F12S, D189N, A369P, E371D, N376T, G386C, N391D, Y402S, M405V counted along it

## O=C(CC(CCN1CCC(O)(c2ccccc2)CC1)c1ccc(Cl)c(Cl)c1)NCc1ccccc1 (stereo not shown) [Example 1, N-Benzyl-5-(4-hydroxy-4-phenylpiperidino)-3-(3,4-dichlorophenyl)pentanamide]
NK1 receptor
  pKB: 5.41
NK2
  Kb: 794 nM
Human NK2 receptor
  Ki: 15 nM
Human NK1 receptor
  Ki: 30 nM
